Results on 36 molecules are retold here after US20240368181A1, “QUINOXALINE DERIVATIVES AND USES THEREOF” (Black Diamond Therapeutics, Inc., priority 2021, published 2024).

Holding throughout (assay type): cell-based
Assay [1] has as its system SNU-16 (FGFR2-amplification) cells. Kind of assay: cell proliferation assay (CellTiterGlo), SNU-16 cells. The settings on record: Homo sapiens, 72 hours. The gist of the method:
(§1)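 To assess antiproliferative activity, plated cells receive test compound across a concentration range, with DMSO as vehicle control. Remaining viable cells are quantified from intracellular ATP by luminescence. Growth relative to vehicle-treated cells gives the IC50.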

In assay [2] the test system is DMS-114 (FGFR1 overexpression) cells. The experiment in a line: cell proliferation assay (CellTiterGlo), DMS-114 cells. Particulars: Homo sapiens, DMS-114, 72 h. The gist of the method:
as §1

The subject of assay [3] is RT-112 (FGFR3-Tacc3 fusion) cells. The experiment in a line: cell proliferation assay (CellTiterGlo), RT-112 cells. Particulars: Homo sapiens, RT-112, RT112 cells, 72 hours. An outline of the steps:
as §1
Background: Cellular ATP, detected with luciferase, serves as a proxy for viable cell number.

Assay [4] deals with UM-UC-14 (FGFR3-S249C) cells. The experiment in a line: cell proliferation assay (CellTiterGlo), UM-UC-14 cells. Particulars: UMUC14, 72 h. The gist of the method: as §1

Consider `Cc1nc2ccc(Oc3ccc4ncc(-c5cnn(CC6CCC(O)CC6)c5)nc4c3Cl)cc2[nH]1` (stereo not drawn) [Compound 339], for which the IC50 in assay [1] was less than 20 nM; in assay [2], 100 to 400 nM; in assay [3], less than 20 nM; in assay [4] it was less than 20 nM.

As to `CN=S1(=O)CCC(n2cc(-c3cnc4ccc(Oc5ccc6nc(C)[nH]c6c5)c(Cl)c4n3)cn2)CC1` (stereo not drawn) [Compound 80], the IC50 is 20 to 100 nM in assay [1], no less than 400 nM in assay [2], 20 to 100 nM in assay [3] and 20 to 100 nM in assay [4].

As for `Cc1cc2cc(Oc3ccc4ncc(-c5cnn(CC6CCN(C)CC6)c5)nc4c3Cl)ccn2n1` [Compound 345], the IC50 in assay [1], in assay [2], in assay [3] and in assay [4] was no less than 400 nM in each case.

Consider `Cc1nc2ccc(Oc3ccc4ncc(-c5cnn(CC6(N)CC6)c5)nc4c3Cl)cc2[nH]1` [Compound 93], for which the IC50 in assay [1] was 100 to 400 nM; in assay [2] it was no less than 400 nM; in assay [3], 100 to 400 nM; in assay [4], 20 to 100 nM.

Turning to `CSC1CCC(Cn2cc(-c3cnc4ccc(Oc5ccc6nc(C)[nH]c6c5)c(Cl)c4n3)cn2)CC1` (stereo not drawn) [Compound 371], the IC50 in assay [1] was 20 to 100 nM; in assay [2], no less than 400 nM; in assay [3], 20 to 100 nM; in assay [4], 100 to 400 nM.

In the case of `Cc1nc2ccc(Oc3ccc4ncc(-c5cnn(CC6CC(F)(F)C6)c5)nc4c3Br)cc2[nH]1` [Compound 243], the IC50 was 20 to 100 nM in assay [1], no less than 400 nM in assay [2], 20 to 100 nM in assay [3] and 20 to 100 nM in assay [4].

On to `Cc1nc2ccc(Oc3ccc4ncc(-c5cnn(CCN6CCC(F)(F)C6)c5)nc4c3Cl)cc2[nH]1` [Compound 252], for which the IC50 in assay [1] was 20 to 100 nM; in assay [2] it was no less than 400 nM; in assay [3] it was 20 to 100 nM; in assay [4] it was 20 to 100 nM.

As to `C=C(F)/C=C/n1cc(-c2cnc3ccc(Oc4ccc5nc(C)[nH]c5c4)c(Cl)c3n2)cn1` [Compound 199], the 50% inhibitory concentration (IC50) is 100 to 400 nM in assay [1], no less than 400 nM in assay [2], 100 to 400 nM in assay [3] and 100 to 400 nM in assay [4].

As for `Cc1nc2ccc(Oc3ccc4ncc(-c5cnn(CC6CCS(=O)(=O)CC6)c5)nc4c3Cl)cc2[nH]1` [Compound 385], the 50% inhibitory concentration (IC50) in assay [1] is 20 to 100 nM; in assay [2] it was 100 to 400 nM; in assay [3], less than 20 nM; in assay [4], 20 to 100 nM.

For the molecule `Cc1nc2ccc(Oc3ccc4ncc(-c5cnn(C6CN(CC(=O)N7CCC7)C6)c5)nc4c3Cl)cc2[nH]1` [Compound 236], the IC50 was 20 to 100 nM in assay [1], no less than 400 nM in assay [2], 20 to 100 nM in assay [3] and 20 to 100 nM in assay [4].

Take `Cc1nc2ccc(Oc3ccc4ncc(-c5cnn(C6CC(N7CCC7)C6)c5)nc4c3Cl)cc2[nH]1` (stereo not drawn) [Compound 244]: the half-maximal inhibitory concentration (IC50) was 100 to 400 nM in assay [1], no less than 400 nM in assay [2], 20 to 100 nM in assay [3] and 20 to 100 nM in assay [4].

Turning to `Cc1nc2ccc(Oc3ccc4ncc(-c5cnn(CC6(O)CC6)c5)nc4c3N3CCOC3=O)c(F)c2[nH]1` [Compound 74], the concentration for half-maximal inhibition (IC50) in assay [1], in assay [2], in assay [3] and in assay [4] was no less than 400 nM throughout.

As to `Cc1nc2ccc(Oc3ccc4ncc(-c5cnn(CC6CC(F)(F)C6)c5)nc4c3C3=CC(C)(C)OC3)cc2[nH]1` [Compound 76], the IC50 was less than 20 nM in assay [1], 100 to 400 nM in assay [2], less than 20 nM in assay [3] and less than 20 nM in assay [4].

With `Cc1nc2ccc(Oc3ccc4ncc(-c5cnn(C67CCN(CC6)C7)c5)nc4c3Cl)cc2[nH]1` [Compound 295], the IC50 in assay [1], in assay [2], in assay [3] and in assay [4] was no less than 400 nM in each case.

`Cc1nc2ccc(Oc3ccc4ncc(-c5cnn([C@H]6CCNC[C@@H]6F)c5)nc4c3Cl)cc2[nH]1` [Compound 369]: the IC50 in assay [1] is 20 to 100 nM; in assay [2], no less than 400 nM; in assay [3], 20 to 100 nM; in assay [4], 20 to 100 nM.

In the case of `Cc1nc2ccc(Oc3ccc4ncc(-c5cnn([C@H]6CCN(C7COC7)C[C@@H]6F)c5)nc4c3C)cc2[nH]1` [Compound 212], the IC50 in assay [1] fell in the range of 20 to 100 nM; in assay [2], 100 to 400 nM; in assay [3], 20 to 100 nM; in assay [4] it was 20 to 100 nM.

On to `Cc1nc2ccc(Oc3ccc4ncc(-c5cnn(CC6CC7CC6CN7C(N)=O)c5)nc4c3Cl)cc2[nH]1` (stereo not drawn) [Compound 328], for which the IC50 in assay [1] is 20 to 100 nM; in assay [2], no less than 400 nM; in assay [3] it was 20 to 100 nM; in assay [4], 20 to 100 nM.

Regarding `Cc1nc2ccc(Oc3ccc4ncc(-c5cnn(CC(=O)N6CCS(=O)(=O)CC6)c5)nc4c3Cl)cc2[nH]1` [Compound 270], the IC50 in assay [1] is 100 to 400 nM; in assay [2], no less than 400 nM; in assay [3] it was 20 to 100 nM; in assay [4], no less than 400 nM.

`Cc1nc2ccc(Oc3ccc4ncc(-c5cnn([C@H](C)CO)c5)nc4c3Cl)cc2[nH]1` [Compound 126]: the IC50 in assay [1] was in the range of 20 to 100 nM; in assay [2], 100 to 400 nM; in assay [3], 20 to 100 nM; in assay [4] it was 20 to 100 nM.

For the molecule `Cc1nc2ccc(Oc3ccc4ncc(-c5cnn(CC6CS(=O)(=O)C6)c5)nc4c3Cl)cc2[nH]1` [Compound 228], the concentration for half-maximal inhibition (IC50) in assay [1] is 20 to 100 nM; in assay [2], no less than 400 nM; in assay [3] it was 20 to 100 nM; in assay [4] it was 20 to 100 nM.

`Cc1nc2ccc(Oc3ccc4ncc(-c5cnn(C(OCc6ccccc6)C6CC6)c5)nc4c3Cl)cc2[nH]1` (stereo not drawn) [Compound 222]: the concentration for half-maximal inhibition (IC50) in assay [1], in assay [2], in assay [3] and in assay [4] was no less than 400 nM throughout.

Turning to `CC(=O)/C=C/N1CC[C@H](n2cc(-c3cnc4ccc(Oc5ccc6nc(C)[nH]c6c5)c(Cl)c4n3)cn2)[C@@H](F)C1` [Compound 233], the IC50 in assay [1] was 20 to 100 nM; in assay [2], no less than 400 nM; in assay [3] it was 20 to 100 nM; in assay [4] it was 20 to 100 nM.

With `Cc1nc2ccc(Oc3ccc4ncc(-c5cnn(Cc6nnc(C)o6)c5)nc4c3Cl)cc2[nH]1` [Compound 111], the 50% inhibitory concentration (IC50) is 20 to 100 nM in assay [1], no less than 400 nM in assay [2], 20 to 100 nM in assay [3] and 20 to 100 nM in assay [4].

For the molecule `Cc1nc2ccc(Oc3ccc4ncc(-c5cnn(CC6CN(CC#N)C6)c5)nc4c3Cl)cc2[nH]1` [Compound 310], the concentration for half-maximal inhibition (IC50) in assay [1] is 20 to 100 nM; in assay [2], no less than 400 nM; in assay [3], 20 to 100 nM; in assay [4] it was 20 to 100 nM.

Take `Cc1nc2ccc(Oc3ccc4ncc(-c5cnn(CC(=O)NCC(C)(C)NC=O)c5)nc4c3Cl)cc2[nH]1` [Compound 208]: the IC50 was 100 to 400 nM in assay [1], no less than 400 nM in assay [2], 100 to 400 nM in assay [3] and no less than 400 nM in assay [4].

Turning to `Cc1nc2ccc(Oc3ccc4ncc(-c5cnn(C6CC7CC6CN7)c5)nc4c3Cl)cc2[nH]1` (stereo not drawn) [Compound 353], the 50% inhibitory concentration (IC50) was 20 to 100 nM in assay [1], no less than 400 nM in assay [2], 20 to 100 nM in assay [3] and 20 to 100 nM in assay [4].

On to `Cc1nc2ccc(Oc3ccc4ncc(-c5cnn(CC6(F)CC6)c5)nc4c3Cl)cc2[nH]1` [Compound 253], for which the IC50 in assay [1] was 100 to 400 nM; in assay [2], no less than 400 nM; in assay [3], 100 to 400 nM; in assay [4] it was 100 to 400 nM.

`Cc1nc2ccc(Oc3ccc4ncc(-c5cnn(CC6CCS(=O)(=O)CC6)c5)nc4c3Br)cc2[nH]1` [Compound 279]: the IC50 is less than 20 nM in assay [1], no less than 400 nM in assay [2], less than 20 nM in assay [3] and less than 20 nM in assay [4].

Regarding `COCCN1CCC(n2cc(-c3cnc4ccc(Oc5ccc6nc(C)[nH]c6c5)c(Cl)c4n3)cn2)CC1` [Compound 316], the 50% inhibitory concentration (IC50) in assay [1] was 20 to 100 nM; in assay [2], no less than 400 nM; in assay [3], 20 to 100 nM; in assay [4], 20 to 100 nM.

Consider `Cc1nc2ccc(Oc3ccc4ncc(-c5cn(CC6CC(F)(F)C6)nc5C)nc4c3Cl)cc2[nH]1` [Compound 276], for which the IC50 in assay [1] is 100 to 400 nM; in assay [2], no less than 400 nM; in assay [3], 20 to 100 nM; in assay [4] it was 100 to 400 nM.

Consider `Cc1nc2ccc(Oc3ccc4ncc(-c5cnn([C@H]6C[C@H]7CC[C@@H](C6)N7)c5)nc4c3Cl)cc2[nH]1` [Compound 362], for which the half-inhibitory concentration (IC50) in assay [1] is 20 to 100 nM; in assay [2] it was 100 to 400 nM; in assay [3], 20 to 100 nM; in assay [4] it was 20 to 100 nM.

For `Cc1nc2ccc(Oc3ccc4ncc(-c5cnn(C(C)(C)C6CC(=O)C6)c5)nc4c3Cl)cc2[nH]1` [Compound 150], the IC50 was 20 to 100 nM in assay [1], no less than 400 nM in assay [2], 20 to 100 nM in assay [3] and 20 to 100 nM in assay [4].

Regarding `Cc1nc2ccc(Oc3ccc4ncc(-c5cnn(C6CCNC(C)(C)C6)c5)nc4c3Cl)cc2[nH]1` (stereo not drawn) [Compound 249], the IC50 is 20 to 100 nM in assay [1], no less than 400 nM in assay [2], 20 to 100 nM in assay [3] and 20 to 100 nM in assay [4].

`Cc1nc2ccc(Oc3ccc4ncc(-c5cnn(CC6CCN(C)CC6(F)F)c5)nc4c3Cl)cc2[nH]1` (stereo not drawn) [Compound 380]: the IC50 is 20 to 100 nM in assay [1], no less than 400 nM in assay [2], less than 20 nM in assay [3] and 20 to 100 nM in assay [4].

Consider `Cc1nc2ccc(Oc3ccc4ncc(-c5cnn([C@H]6C[C@H](N7C[C@@H]8C[C@H]7CO8)C6)c5)nc4c3Cl)cc2[nH]1` [Compound 203], for which the IC50 in assay [1] was 20 to 100 nM; in assay [2], no less than 400 nM; in assay [3], 20 to 100 nM; in assay [4], 20 to 100 nM.

Regarding `Cc1nc2ccc(Oc3ccc4ncc(-c5cnn(CC6CC(F)(F)C6)c5)nc4c3C3=CCNC3)cc2[nH]1` [Compound 83], the IC50 in assay [1] was 100 to 400 nM; in assay [2], no less than 400 nM; in assay [3] it was 100 to 400 nM; in assay [4], 20 to 100 nM.

As usually defined, the IC50 is the concentration at which inhibition is half-maximal.
